Key:
KRAS WT = KRAS WT (Homo sapiens (Human), UniProt P01116); test: KRAS WT Biochemical Assay, BODIPY-GDP Exchange TR-FRET (Example 501; 3 nM KRAS WT, 3 nM SOS1, 60-minute incubation); settings: read-out: KRas(wt) GDP HTRF IC50
Experimental: Example 501: KRAS WT Biochemical Assay, BODIPY-GDP Exchange TR-FRET. Biochemical compound potencies are assessed by evaluating inhibition of SOS1-mediated nucleotide exchange in KRAS WT. In this assay, the SOS1-promoted exchange of fluorescently-labeled GDP (BOPIDY-GDP) is monitored by time-resolved fluorescence resonance energy transfer (TR-FRET). Compounds solubilized in DMSO are dispensed as concentration series into 384-well white assay plates, and 5 uL assay buffer (20 mM HEPES, pH 7.5, 50 mM NaCl, 10 mM MgCl2, 0.01% Tween-20 and 1 mM dithiothreitol) is added just prior to the start of the assay. A preformed complex of 3 nM biotin-tagged recombinant human KRAS WT and 0.3 nM terbium-labeled streptavidin (CisBIO) prepared in 5 uL/well assay buffer is added and allowed to incubate for 10-minutes at room temperature. The reaction is initiated with the addition of 5 uL 3 nM recombinant human SOS1 and 300 nM BODIPY-GDP in assay buffer. After a 60-minute incubation, the fluorescence is measured with excitation at 337 nm and emission at 490 and 520 nm. The TR-FRET ratio is determined as the fluorescence at 520 nm divided by the fluorescence at 490 nm multiplied by 10,000. The results are normalized to percent inhibition based on control samples: DMSO (0% inhibition) and control compound at a concentration that inhibits completely (100% inhibition). The normalized TR-FRET results are plotted against compound concentration, and the data are fit to a 4-parameter Hill equation to determine the IC50 values.

KRAS G12D = KRAS G12D (Homo sapiens (Human), UniProt P01116, G12D); test: KRAS G12D LoEnz Biochemical Assay, BODIPY-GDP Exchange TR-FRET (SOS1-mediated nucleotide exchange); settings: read-out: KRas (G12D) GDP HTRF IC50
Sequence of KRAS G12D (P01116-2 other isoform, or with tags, fused parts or gaps G12D): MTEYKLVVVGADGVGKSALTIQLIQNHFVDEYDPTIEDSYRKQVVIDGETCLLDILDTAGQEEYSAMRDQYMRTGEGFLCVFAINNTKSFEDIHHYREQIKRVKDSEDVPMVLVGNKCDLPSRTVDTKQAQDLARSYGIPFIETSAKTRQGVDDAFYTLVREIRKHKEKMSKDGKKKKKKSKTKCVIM
Experimental: Example 500: KRAS G12D LoEnz Biochemical Assay, BODIPY-GDP Exchange TR-FRET. Biochemical compound potencies are assessed by evaluating inhibition of SOS1I-mediated nucleotide exchange in KRAS G121D. In this assay, the SOS1-promoted exchange of fluorescently-labeled GDP (BOPIDY-GDP) is monitored by time-resolved fluorescence resonance energy transfer (TR-FRET). Compounds solubilized in DMS0 are dispensed as concentration series into 384-well white assay plates. A preformed complex of biotin-tagged recombinant human KRAS (0.06 nM mutant G1 2D) and 0.06 nM terbium-labeled streptavidin (CisBIO) prepared in 10 uL/well assay buffer (20 mM HEPES, pH 7.5, 50 mM NaCl, 10 mMMMgCl2, 0.0100 Tween-20 and 1 mM dithiothreitol) is added and allowed to incubate for 10-minutes at room temperature. The reaction is initiated with the addition of 5 uL 300 nM recombinant human SOS1 and 300 nM BODIPY-GDP in assay buffer. After a 120-minute incubation, the fluorescence is measured with excitation at 337 nm and emission at 490 and 520 nm. The TR-FRET ratio is determined as the fluorescence at 520 nm divided by the fluorescence at 490 nm multiplied by 10,000. The results are normalized to percent inhibition based on control samples: DMSO (0% inhibition) and control compound at a concentration that inhibits completely (100% inhibition). The normalized TR-FRET results are plotted against compound concentration, and the data are fit to a 4-parameter Hill equation to determine the IC50 values.

Sequence of KRAS WT (P01116-2 other isoform, or with tags, fused parts or gaps): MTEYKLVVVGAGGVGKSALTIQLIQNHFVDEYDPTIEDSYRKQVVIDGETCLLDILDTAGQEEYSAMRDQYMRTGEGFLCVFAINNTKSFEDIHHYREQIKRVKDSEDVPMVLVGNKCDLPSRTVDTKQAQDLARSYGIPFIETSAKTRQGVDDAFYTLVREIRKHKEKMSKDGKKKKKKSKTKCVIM

| SMILES | IC50 (KRAS WT) | IC50 (KRAS G12D) |
| --- | --- | --- |
| Oc1cc(-c2nc3c4c(nc(OC[C@@]56CCCN5C[C@H](F)C6)nc4c2F)N2C[C@H]4CC[C@H](N4)[C@H]2CO3)c2c(F)cccc2c1 [Compound 1, 5-Fluoro-4-((5aS,6S,9R)-1-fluoro-12-(((2R,7aS)-2-fluorotetrahydro-1H-pyrrolizin-7a(5H)-yl)methoxy)-5a,6,7,8,9,10-hexahydro-5H-4-oxa-3,10a,11,13,14-pentaaza-6,9-methanonaphtho[1,8-ab]heptalen-2-yl)naphthalen-2-ol] | 8.12 nM | 0.12 nM |
| Cn1ncc2ccc(F)c(-c3nc4c5c(nc(OC[C@@]67CCCN6C[C@H](F)C7)nc5c3F)N3C[C@H]5CC[C@H](N5)[C@H]3CO4)c21 [Compound 4, (5aS,6S,9R)-1-fluoro-2-(6-fluoro-1-methyl-1H-indazol-7-yl)-12-(((2R,7aS)-2-fluorotetrahydro-1H-pyrrolizin-7a(5H)-yl)methoxy)-5a,6,7,8,9,10-hexahydro-5H-4-oxa-3,10a,11,13,14-pentaaza-6,9-methanonaphtho[1,8-ab]heptalene] | 9570 nM | 899 nM |
| CCc1cccc2cc(O)cc(-c3nc4c5c(nc(OC[C@@]67CCCN6C[C@H](F)C7)nc5c3F)N3C[C@H]5CC[C@H](N5)[C@H]3CO4)c12 [Compound 5, 5-ethyl-4-((5aS,6S,9R)-1-fluoro-12-(((2R,7aS)-2-fluorotetrahydro-1H-pyrrolizin-7a(5H)-yl)methoxy)-5a,6,7,8,9,10-hexahydro-5H-4-oxa-3,10a,11,13,14-pentaaza-6,9-methanonaphtho[1,8-ab]heptalen-2-yl)naphthalen-2-ol] | 2.12 nM | 0.06 nM |
| C[C@@H]1Oc2nc(-c3cccc4cccc(Cl)c34)c(F)c3nc(OC[C@@]45CCCN4C[C@H](F)C5)nc(c23)N2C[C@H]3CC[C@H](N3)[C@@H]12 [Compound 8, (5S,5aS,6S,9R)-2-(8-chloronaphthalen-1-yl)-1-fluoro-12-(((2R,7aS)-2-fluorotetrahydro-1H-pyrrolizin-7a(5H)-yl)methoxy)-5-methyl-5a,6,7,8,9,10-hexahydro-5H-4-oxa-3,10a,11,13,14-pentaaza-6,9-methanonaphtho[1,8-ab]heptalene] | 146 nM | 1.78 nM |
| C[C@@H]1Oc2nc(-c3cccc(N)c3F)c(F)c3nc(OC[C@@]45CCCN4C[C@H](F)C5)nc(c23)N2C[C@H]3CC[C@H](N3)[C@@H]12 [Compound 12, 2-fluoro-3-((5S,5aS,6S,9R)-1-fluoro-12-(((2R,7aS)-2-fluorotetrahydro-1H-pyrrolizin-7a(5H)-yl)methoxy)-5-methyl-5a,6,7,8,9,10-hexahydro-5H-4-oxa-3,10a,11,13,14-pentaaza-6,9-methanonaphtho[1,8-ab]heptalen-2-yl)aniline] | 37400 nM | 379 nM |
| C[C@@H]1Oc2nc(-c3cc(N)c(F)cc3C(F)(F)F)c(F)c3nc(OC[C@@]45CCCN4C[C@H](F)C5)nc(c23)N2C[C@H]3CC[C@H](N3)[C@@H]12 [Compound 14, 2-fluoro-5-((5S,5aS,6S,9R)-1-fluoro-12-(((2R,7aS)-2-fluorotetrahydro-1H-pyrrolizin-7a(5H)-yl)methoxy)-5-methyl-5a,6,7,8,9,10-hexahydro-5H-4-oxa-3,10a,11,13,14-pentaaza-6,9-methanonaphtho[1,8-ab]heptalen-2-yl)-4-(trifluoromethyl)aniline] | 6.58 nM | 0.26 nM |
| C[C@@H]1Oc2nc(-c3cc(N)c(F)c(F)c3C(F)(F)F)c(F)c3nc(OC[C@@]45CCCN4C[C@H](F)C5)nc(c23)N2C[C@H]3CC[C@H](N3)[C@@H]12 [Compound 15, 2,3-difluoro-5-((5S,5aS,6S,9R)-1-fluoro-12-(((2R,7aS)-2-fluorotetrahydro-1H-pyrrolizin-7a(5H)-yl)methoxy)-5-methyl-5a,6,7,8,9,10-hexahydro-5H-4-oxa-3,10a,11,13,14-pentaaza-6,9-methanonaphtho[1,8-ab]heptalen-2-yl)-4-(trifluoromethyl)aniline] | 0.448 nM | 0.07 nM |
| Cc1cc(-c2nc3c4c(nc(OC[C@@]56CCCN5C[C@H](F)C6)nc4c2F)N2C[C@H]4CC[C@H](N4)[C@H]2[C@H](C)O3)c(F)c(N)c1F [Compound 18, 2,6-difluoro-3-((5S,5aS,6S,9R)-1-fluoro-12-(((2R,7aS)-2-fluorotetrahydro-1H-pyrrolizin-7a(5H)-yl)methoxy)-5-methyl-5a,6,7,8,9,10-hexahydro-5H-4-oxa-3,10a,11,13,14-pentaaza-6,9-methanonaphtho[1,8-ab]heptalen-2-yl)-5-methylaniline] | 7850 nM | 175 nM |
| Cc1c(F)c(N)cc(-c2nc3c4c(nc(OC[C@]56CCN5CC(F)(F)C6)nc4c2F)N2C[C@H]4CC[C@H](N4)[C@H]2[C@H](C)O3)c1C(F)(F)F [Compound 24, 5-((5S,5aS,6S,9R)-12-(((R)-3,3-difluoro-1-azabicyclo[3.2.0]heptan-5-yl)methoxy)-1-fluoro-5-methyl-5a,6,7,8,9,10-hexahydro-5H-4-oxa-3,10a,11,13,14-pentaaza-6,9-methanonaphtho[1,8-ab]heptalen-2-yl)-2-fluoro-3-methyl-4-(trifuoromethyl)aniline] | 3.28 nM | 0.29 nM |
| C[C@@H]1Oc2nc(-c3cc(O)cc4ccccc34)c(F)c3nc(OC[C@]45CCN4CC(F)(F)C5)nc(c23)N2C[C@H]3CC[C@H](N3)[C@@H]12 [Compound 25, 4-((5S,5aS,6S,9R)-12-(((R)-3,3-difluoro-1-azabicyclo[3.2.0]heptan-5-yl)methoxy)-1-fluoro-5-methyl-5a,6,7,8,9,10-hexahydro-5H-4-oxa-3,10a,11,13,14-pentaaza-6,9-methanonaphtho[1,8-ab]heptalen-2-yl)naphthalen-2-ol] | 126 nM | 2.04 nM |
| Cc1c(F)c(N)cc(-c2nc3c4c(nc(OC[C@@H]5C[C@@H](F)CN5C)nc4c2F)N2C[C@H]4CC[C@H](N4)[C@H]2[C@H](C)O3)c1C(F)(F)F [Compound 26, 2-Fluoro-5-((5S,5aS,6S,9R)-1-fluoro-12-(((2S,4R)-4-fluoro-1-methylpyrrolidin-2-yl)methoxy)-5-methyl-5a,6,7,8,9,10-hexahydro-5H-4-oxa-3,10a,11,13,14-pentaaza-6,9-methanonaphtho[1,8-ab]heptalen-2-yl)-3-methyl-4-(trifluoromethyl)aniline] | 6.01 nM | 0.26 nM |
| C[C@@H]1Oc2nc(-c3cccc4cccc(Cl)c34)c(F)c3nc(OC[C@@]45CCCN4CC4(CC4(F)F)C5)nc(c23)N2C[C@H]3CC[C@H](N3)[C@@H]12 (stereo partly drawn) [Compound 27, (5S,5aS,6S,9R)-2-(8-chloronaphthalen-1-yl)-12-(((7a′S)-2,2-difluorodihydro-1′H,3′H-spiro[cyclopropane-1,2′-pyrrolizin]-7a′(5′H)-yl)methoxy)-1-fluoro-5-methyl-5a,6,7,8,9,10-hexahydro-5H-4-oxa-3,10a,11,13,14-pentaaza-6,9-methanonaphtho[1,8-ab]heptalene] | 65.2 nM | 0.72 nM |
| Cc1c(F)c(N)cc(-c2nc3c4c(nc(OCC56CCN5C[C@H](F)C6)nc4c2F)N2C[C@H]4CC[C@H](N4)[C@H]2[C@H](C)O3)c1C(F)(F)F (stereo partly drawn) [Compound 29, 2-fluoro-5-((5S,5aS,6S,9R)-1-fluoro-12-(((3R)-3-fluoro-1-azabicyclo[3.2.0]heptan-5-yl)methoxy)-5-methyl-5a,6,7,8,9,10-hexahydro-5H-4-oxa-3,10a,11,13,14-pentaaza-6,9-methanonaphtho[1,8-ab]heptalen-2-yl)-3-methyl-4-(trifluoromethyl)aniline] | 2.93 nM | 0.086 nM |

Source: patent US20240025919A1, “AZA-TETRACYCLIC OXAZEPINE COMPOUNDS AND USES THEREOF” (Genentech, Inc., priority 2022, published 2024)
